Results reported in patent publication US20260125382A1, “COMPOUNDS FOR INHIBITING OR DEGRADING CDK2 AND/OR CDK9 AND MEDICINAL USE THEREOF” (KOREA RESEARCH INSTITUTE OF CHEMICAL TECHNOLOGY, priority 2022, published 2026).

Assays:
[1] = target: T1, CDK2 (Homo sapiens, UniProt P24941); assay: CDK protein degradation activity (Western blotting), CDK2; format: cell-based; conditions: MDA-MB-231 cells, 16 hours, Western blot
T1 construct: endogenous in cells; host or cells: MDA-MB-231
Protocol: (§1) In order to evaluate the CDK protein degradation activity of the compounds according to the present invention, the following experiment was conducted.
(§2) MDA-MB-231 cells were seeded at 5×10^5 cells per well in a 6-well plate. The next day, the compounds were treated in each well to achieve final concentrations of 100 nM, 1 μM, and 10 μM. For the control group, an equal amount of DMSO was treated in the well as the compound. After 16 hours of treatment, cells were collected, and cell lysates were prepared using Triton X-100 lysis buffer (50 mM HEPES, pH 7.5, 40 mM NaCl, 1% Triton X-100, 1 mM EDTA, 1 mM EGTA, 10 mM pyrophosphate, 10 mM β-glycerophosphate, 50 mM NaF, 1 mM NaVO4, protease inhibitor). Cell lysates were quantified and separated by size using sodium dodecyl sulfate-polyacrylamide gel electrophoresis (SDS-PAGE). Western blotting was then performed using antibodies that recognize CDK2, CDK9, and tubulin, respectively. The results obtained by Western blotting were quantitatively analyzed using the ImageJ program, and representative images according to the experimental results are shown in FIG. 1.

[2] = target: T2, CDK9 (Homo sapiens, UniProt P50750); assay: CDK protein degradation activity (Western blotting), CDK9; format: cell-based; conditions: MDA-MB-231 cells, 16 hours, Western blot
T2 construct: endogenous in cells; host or cells: MDA-MB-231
Protocol: as §1, §2

T2 sequence (P50750 whole entry): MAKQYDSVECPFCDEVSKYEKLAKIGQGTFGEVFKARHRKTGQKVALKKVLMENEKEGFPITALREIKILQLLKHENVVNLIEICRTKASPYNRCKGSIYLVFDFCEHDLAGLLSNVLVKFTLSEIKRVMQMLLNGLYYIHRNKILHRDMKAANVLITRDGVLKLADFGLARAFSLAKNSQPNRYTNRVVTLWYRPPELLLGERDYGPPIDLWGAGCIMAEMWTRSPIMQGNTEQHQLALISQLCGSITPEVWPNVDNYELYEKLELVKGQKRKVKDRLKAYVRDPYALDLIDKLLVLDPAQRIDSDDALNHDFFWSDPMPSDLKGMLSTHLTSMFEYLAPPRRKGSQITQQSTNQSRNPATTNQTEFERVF

SMILES	Enzyme degradation CDK2 (% remaining) @ 0.1 μM [1]	Enzyme degradation CDK2 (% remaining) @ 1 μM [1]	Enzyme degradation CDK2 (% remaining) @ 10 μM [1]	Enzyme degradation CDK9 (% remaining) @ 0.1 μM [2]	Enzyme degradation CDK9 (% remaining) @ 1 μM [2]	Enzyme degradation CDK9 (% remaining) @ 10 μM [2]
Cc1cccc(C(=O)N[C@H]2C[C@@H](n3cnc4c(NC5CCN(CCC6CCN(C(=O)COc7ccc8c(c7)C(=O)N(C7CCC(=O)NC7=O)C8=O)CC6)CC5)ncnc43)C2)n1 (stereo partly drawn) [Compound 31, N-((1s,3s)-3-(6-((1-(2-(1-(2-((2-(2,6-dioxopiperidin-3-yl)-1,3-dioxoisoindolin-5-yl)oxy)acetyl)piperidin-4-yl)ethyl)piperidin-4-yl)amino)-9H-purin-9-yl)cyclobutyl)-6-methylpicolinamide]	70%	40%	30%	10%	0%	0%
Cc1cccc(C(=O)N[C@H]2C[C@@H](n3cnc4c(NC5CCN(CCC6CCN(C(=O)CNc7cccc8c7C(=O)N(C7CCC(=O)NC7=O)C8=O)CC6)CC5)ncnc43)C2)n1 (stereo partly drawn) [Compound 34, N-((1s,3s)-3-(6-((1-(2-(1-((2-(2,6-dioxopiperidin-3-yl)-1,3-dioxoisoindolin-4-yl)glycyl)piperidin-4-yl)ethyl)piperidin-4-yl)amino)-9H-purin-9-yl)cyclobutyl)-6-methylpicolinamide]	50%	50%	100%	0%	0%	10%
Cc1cccc(C(=O)N[C@H]2C[C@@H](n3cnc4c(NC5CCN(CCCN6CCN(C(=O)CNc7cccc8c7C(=O)N([C@H]7CCC(=O)NC7=O)C8=O)CC6)CC5)ncnc43)C2)n1 [Compound 38, N-((1s,3s)-3-(6-((1-(3-(4-((2-(2,6-dioxopiperidin-3-yl)-1,3-dioxoisoindolin-4-yl)glycyl)piperazin-1-yl)propyl)piperidin-4-yl)amino)-9H-purin-9-yl)cyclobutyl)-6-methylpicolinamide]	40%	30%	20%	0/0/0%	0/0/0%	0/0/0%
Cc1cccc(C(=O)NC2CC(n3cnc4c(NC5CCN(CCCN6CCN(c7cccc8c7C(=O)N([C@H]7CCC(=O)NC7=O)C8=O)CC6)CC5)ncnc43)C2)n1 (stereo partly drawn) [Compound 42, N-((1s,3s)-3-(6-((1-(3-(4-(2-(2,6-dioxopiperidin-3-yl)-1,3-dioxoisoindolin-4-yl)piperazin-1-yl)propyl)piperidin-4-yl)amino)-9H-purin-9-yl)cyclobutyl)-6-methylpicolinamide]	100%	60%	30%	30%	0%	10%
Cc1cccc(C(=O)N[C@H]2C[C@@H](n3cnc4c(NC5CCN(CCOC6CCN(C(=O)CNc7ccc8c(c7)C(=O)N(C7CCC(=O)NC7=O)C8=O)CC6)CC5)ncnc43)C2)n1 (stereo partly drawn) [Compound 45, N-((1s,3s)-3-(6-((1-(2-((1-((2-(2,6-dioxopiperidin-3-yl)-1,3-dioxoisoindolin-5-yl)glycyl)piperidin-4-yl)oxy)ethyl)piperidin-4-yl)amino)-9H-purin-9-yl)cyclobutyl)-6-methylpicolinamide]	80%	60%	90%	0/0/0%	0/0/0%	0/0/0%
Cc1cccc(C(=O)NC2CC(n3cnc4c(NC5CCN(CCOC6CCN(C(=O)CNc7cccc8c7C(=O)N([C@H]7CCC(=O)NC7=O)C8=O)CC6)CC5)ncnc43)C2)n1 (stereo partly drawn) [Compound 46, N-((1s,3s)-3-(6-((1-(2-((1-((2-(2,6-dioxopiperidin-3-yl)-1,3-dioxoisoindolin-4-yl)glycyl)piperidin-4-yl)oxy)ethyl)piperidin-4-yl)amino)-9H-purin-9-yl)cyclobutyl)-6-methylpicolinamide]	80%	90%	100%	20%	10%	30%

More lines, now with the values ahead:

Enzyme degradation CDK2 (% remaining) @ 0.1 μM [1]	Enzyme degradation CDK2 (% remaining) @ 1 μM [1]	Enzyme degradation CDK2 (% remaining) @ 10 μM [1]	Enzyme degradation CDK9 (% remaining) @ 0.1 μM [2]	Enzyme degradation CDK9 (% remaining) @ 1 μM [2]	Enzyme degradation CDK9 (% remaining) @ 10 μM [2]	SMILES
60%	20%	20%	50%	0%	0%	Cc1cccc(C(=O)NC2CC(n3cnc4c(NC5CCN(CCC6CCN(C(=O)COc7cccc8c7C(=O)N([C@H]7CCC(=O)NC7=O)C8=O)CC6)CC5)ncnc43)C2)n1 (stereo partly drawn) [Compound 32, N-((1s,3s)-3-(6-((1-(2-(1-(2-((2-(2,6-dioxopiperidin-3-yl)-1,3-dioxoisoindolin-4-yl)oxy)acetyl)piperidin-4-yl)ethyl)piperidin-4-yl)amino)-9H-purin-9-yl)cyclobutyl)-6-methylpicolinamide]
100%	60%	60%	0%	10%	10%	Cc1cccc(C(=O)N[C@H]2C[C@@H](n3cnc4c(NC5CCN(CCC6CCN(c7ccc8c(c7)C(=O)N([C@H]7CCC(=O)NC7=O)C8=O)CC6)CC5)ncnc43)C2)n1 [Compound 35, N-((1s,3s)-3-(6-((1-(2-(1-(2-(2,6-dioxopiperidin-3-yl)-1,3-dioxoisoindolin-5-yl)piperidin-4-yl)ethyl)piperidin-4-yl)amino)-9H-purin-9-yl)cyclobutyl)-6-methylpicolinamide]
100/100/100%	100/100/100%	100/100/100%	30%	10%	20%	Cc1cccc(C(=O)N[C@H]2C[C@@H](n3cnc4c(NC5CCN(CCC6CCN(c7cccc8c7C(=O)N([C@H]7CCC(=O)CC7=O)C8=O)CC6)CC5)ncnc43)C2)n1 [Compound 36, N-((1s,3s)-3-(6-((1-(2-(1-(2-(2,4-dioxocyclohexyl)-1,3-dioxoisoindolin-4-yl)piperidin-4-yl)ethyl)piperidin-4-yl)amino)-9H-purin-9-yl)cyclobutyl)-6-methylpicolinamide]
90%	60%	70%	50%	0%	0%	Cc1cccc(C(=O)N[C@H]2C[C@@H](n3cnc4c(NC5CCN(CCOC6CCN(C(=O)COc7ccc8c(c7)C(=O)N([C@H]7CCC(=O)NC7=O)C8=O)CC6)CC5)ncnc43)C2)n1 [Compound 43, N-((1s,3s)-3-(6-((1-(2-((1-(2-((2-(2,6-dioxopiperidin-3-yl)-1,3-dioxoisoindolin-5-yl)oxy)acetyl)piperidin-4-yl)oxy)ethyl)piperidin-4-yl)amino)-9H-purin-9-yl)cyclobutyl)-6-methylpicolinamide]
100/100/100%	100/100/100%	100/100/100%	40%	0%	0%	Cc1cccc(C(=O)N[C@H]2C[C@@H](n3cnc4c(NC5CCN(CCOC6CCN(c7ccc8c(c7)C(=O)N([C@H]7CCC(=O)NC7=O)C8=O)CC6)CC5)ncnc43)C2)n1 [Compound 47, N-((1s,3s)-3-(6-((1-(2-((1-(2-(2,6-dioxopiperidin-3-yl)-1,3-dioxoisoindolin-5-yl)piperidin-4-yl)oxy)ethyl)piperidin-4-yl)amino)-9H-purin-9-yl)cyclobutyl)-6-methylpicolinamide]
100/100/100%	100/100/100%	100/100/100%	50%	20%	20%	Cc1cccc(C(=O)NC2CC(n3cnc4c(NC5CCN(CCOC6CCN(c7cccc8c7C(=O)N([C@H]7CCC(=O)NC7=O)C8=O)CC6)CC5)ncnc43)C2)n1 (stereo partly drawn) [Compound 48, N-((1s,3s)-3-(6-((1-(2-((1-(2-(2,6-dioxopiperidin-3-yl)-1,3-dioxoisoindolin-4-yl)piperidin-4-yl)oxy)ethyl)piperidin-4-yl)amino)-9H-purin-9-yl)cyclobutyl)-6-methylpicolinamide]
